Laboratory results published in US9248109B2, “High penetration prodrug compositions of peptides and peptide-related compounds” (priority 2009, dated 2016).
Counter-ions that a name gives are not always drawn. Non-standard residues stand in square brackets, D forms with d. Residues, ends and D or L forms follow the SMILES beside them. *: point of attachment. Arg(NO2) = N=C(NCCC[C@H](N)C(=O)O)N[N+](=O)[O-]; X1 = CCCCO*

Key:
Sprague Dawley rats = assay: Anti-obese activity, transdermal, female Sprague Dawley rats 15 weeks old (first experiment); format: in vivo, rat; details: for Weight (g) (Day 1): baseline; for effect on body weights of rats (in words): 10, 1 or 0.3 mg/kg transdermal twice per day for 30 days; for effect on food intakes and body weights (in words): administrated transdermally, as low as 0.3 mg/kg in rat, SD rats and DB/DB mice
Procedure: (§1) In a first experiment, 40 female Sprague Dawley rats (15 weeks old, 318-346 g) were divided into 4 groups. In group A, 0.2 ml of water was administered to the back of rat (n=10) twice per day for 30 days. In Groups B, C, and D, 10 mg/kg, 1 mg/kg, or 0.3 mg/kg of H-Val-Pro-Gly-Pro-Arg(NO2)—OCH(CH3)2.HCl(SEQ ID NO: 197) in 0.2 ml of water was administered transdermally to the back of rat (n=10) twice per day for 30 days respectively.
as §1, with “Dawley (SD)” for “Dawley”, “315-340” for “318-346”, “H-Val-Pro-Gly-Pro-Arg(diAc)-OCH2CH2CH2CH3.HCl(SEQ” for “H-Val-Pro-Gly-Pro-Arg(NO2)—OCH(CH3)2.HCl(SEQ”, “198)” for “197)”
as §1, with “Dawley (SD)” for “Dawley”, “320-345” for “318-346”, “H-Ala-Pro-Gly-Pro-Arg(NO2)—OCH2CH2CH2CH3.HCl(SEQ” for “H-Val-Pro-Gly-Pro-Arg(NO2)—OCH(CH3)2.HCl(SEQ”, “199)” for “197)”
as §1, with “Dawley (SD)” for “Dawley”, “320-350” for “318-346”, “H-Val-Pro-Asp(OEt)-Pro-Arg(NO2)—OCH2CH2CH2CH3.HCl(SEQ” for “H-Val-Pro-Gly-Pro-Arg(NO2)—OCH(CH3)2.HCl(SEQ”, “200)” for “197)”

[1] = system: young Sprague Dawley rats; assay: Anti-obese activity, transdermal, young female Sprague Dawley rats (second experiment); format: in vivo, rat; details: for effect on overweight of young rats (in words): 10, 1 or 0.3 mg/kg transdermal twice per day for 30 days; for Food intake (per day & per rat) / Weight (g) (Day 30) / Weight (g) (Day 1): young rats; for Weight (g) (Day 1): baseline
Procedure: (§2) In a second experiment, 40 young female Sprague Dawley (SD) rats (180-225 g) were divided into 4 groups. In group A, 0.2 ml of water was administered to the back of rat (n=10) twice per day for 30 days. In Groups B, C, and D, 10 mg/kg, 1 mg/kg, or 0.3 mg/kg of H-Val-Pro-Gly-Pro-Arg(NO2)—OCH(CH3)2.HCl(SEQ ID NO: 197) in 0.2 ml of water were administered transdermally to the backs of rats (n=10) twice per day for 30 days respectively.
as §2, with “(180-230” for “(180-225”, “H-Val-Pro-Gly-Pro-Arg(diAc)-OCH2CH2CH2CH3.HCl(SEQ” for “H-Val-Pro-Gly-Pro-Arg(NO2)—OCH(CH3)2.HCl(SEQ”, “198)” for “197)”, “days.” for “days respectively.”
as §2, with “rats (182-223” for “rats (180-225”, “of H-Ala-Pro-Gly-Pro-Arg(NO2)—OCH2CH2CH2CH3.HCl(SEQ” for “of H-Val-Pro-Gly-Pro-Arg(NO2)—OCH(CH3)2.HCl(SEQ”, “NO: 199)” for “NO: 197)”, “water was” for “water were”
as §2, with “(185-220” for “(180-225”, “H-Val-Pro-Asp(OEt)-Pro-Arg(NO2)-OCH2CH2CH2CH3.HCl(SEQ” for “H-Val-Pro-Gly-Pro-Arg(NO2)—OCH(CH3)2.HCl(SEQ”, “200)” for “197)”, “days.” for “days respectively.”

[2] = 0.3 mg/kg transdermal twice per day for 30 days
[3] = 0.3 mg/kg transdermal twice per day
[4] = 1 mg/kg transdermal twice per day for 30 days
[5] = 1 mg/kg transdermal twice per day
[6] = 10 mg/kg transdermal twice per day for 30 days
[7] = 10 mg/kg transdermal twice per day

Row | Compound | Food intake (per day & per rat) (Sprague Dawley rats; [2]) | Weight (g) (Day 30) (Sprague Dawley rats; [2]) | Weight (g) (Day 1) (Sprague Dawley rats; [3]) | Food intake (per day & per rat) (Sprague Dawley rats; [4]) | Weight (g) (Day 30) (Sprague Dawley rats; [4]) | Weight (g) (Day 1) (Sprague Dawley rats; [5]) | Food intake (per day & per rat) (Sprague Dawley rats; [6]) | Weight (g) (Day 30) (Sprague Dawley rats; [6]) | Weight (g) (Day 1) (Sprague Dawley rats; [7]) | effect on body weights of rats (in words) (Sprague Dawley rats) | effect on food intakes and body weights (in words) (Sprague Dawley rats) | effect on overweight of young rats (in words) [1] | Food intake (per day & per rat) [1, 2] | Weight (g) (Day 30) [1, 2] | Weight (g) (Day 1) [1, 3] | Food intake (per day & per rat) [1, 4] | Weight (g) (Day 30) [1, 4] | Weight (g) (Day 1) [1, 5] | Food intake (per day & per rat) [1, 6] | Weight (g) (Day 30) [1, 6] | other results
1 | CCCCOC(=O)[C@H](CCCNC(=N)N[N+](=O)[O-])NC(=O)[C@@H]1CCCN1C(=O)CNC(=O)[C@@H]1CCCN1C(=O)[C@H](C)N [H-Ala-Pro-Gly-Pro-Arg(NO2)—OCH2CH2CH2CH3.HCl] (HELM PEPTIDE1{A.P.G.P.[N=C(NCCC[C@H](N[*:1])C(=O)[*:2])N[N+](=O)[O-]].[CCCCO[*:1]]}$$$$V2.0) | 22.7 ± 1.8 | 335.1 ± 4.8 | 335.1 ± 6.2 | 21.8 ± 2.3 | 323.7 ± 4.4 | 333.6 ± 7.8 | 20.8 ± 2.4 | 315.4 ± 3.8 | 332.2 ± 7.4 | reduced body weights of rats effectively | reduced food intakes and body weights | controlled overweight of rats effectively | 21.3 ± 2.2 | 326.2 ± 4.8 | 194.1 ± 4.5 | 20.3 ± 2.7 | 321.7 ± 4.0 | 192.6 ± 4.1 | 19.5 ± 2.3 | 305.4 ± 4.7 | Weight (g) (Day 1) [1, 7]: 193.7 ± 4.2 g
2 | CCCCOC(=O)[C@H](CCCNC(=N)N[N+](=O)[O-])NC(=O)[C@@H]1CCCN1C(=O)[C@H](CC(=O)OCC)NC(=O)[C@@H]1CCCN1C(=O)[C@@H](N)C(C)C [H-Val-Pro-Asp(OEt)-Pro-Arg(NO2)—OCH2CH2CH2CH3.HCl] (H-VPD(OEt)P[Arg(NO2)]-X1) | 22.7 ± 2.5 | 333.1 ± 3.9 | 333.5 ± 7.1 | 21.9 ± 2.7 | 326.8 ± 2.8 | 329.8 ± 7.8 | 20.1 ± 3.2 | 318.1 ± 3.9 | 330.5 ± 8.2 | reduced body weights of rats effectively | reduced food intake and body weights | controlled overweight of rats effectively | 22.7 ± 2.9 | 336.6 ± 5.8 | 192.1 ± 4.6 | 21.3 ± 2.1 | 325.4 ± 4.9 | 193.2 ± 4.7 | 20.4 ± 2.7 | 315.4 ± 6.7 | Weight (g) (Day 1) [1, 7]: 191.2 ± 5.2 g
3 | CC(C)OC(=O)[C@H](CCCNC(=N)N[N+](=O)[O-])NC(=O)[C@@H]1CCCN1C(=O)CNC(=O)[C@@H]1CCCN1C(=O)[C@@H](N)C(C)C [H-Val-Pro-Gly-Pro-Arg(NO2)-OCH(CH3)2•HCl, H-Val-Pro-Gly-Pro-Arg(NO2)—OCH(CH3)2.HCl] (HELM PEPTIDE1{V.P.G.P.[N=C(NCCC[C@H](N[*:1])C(=O)[*:2])N[N+](=O)[O-]].[CC(C)O[*:1]]}$$$$V2.0) | 22.1 ± 2.5 | 322.1 ± 4.3 | 335.4 ± 5.2 | 21.1 ± 2.7 | 313.7 ± 5.1 | 333.1 ± 5.1 | 19.9 ± 2.9 | 308.4 ± 4.5 | 331.7 ± 6.2 | reduced body weights of rats effectively | reduced food intakes and body weights | controlled overweight of young rats effectively | 21.8 ± 2.7 | 327.2 ± 3.8 | 195.1 ± 5.5 | 20.1 ± 2.8 | 323.1 ± 4.5 | 191.6 ± 4.7 | 19.8 ± 3.3 | 307.4 ± 5.7 | Weight (g) (Day 1) [1, 7]: 192.7 ± 6.2 g
4 | H-Val-Pro-Gly-Pro-Arg(diAc)-OCH2CH2CH2CH3.HCl | 23.0 ± 1.7 | 347.1 ± 5.7 | 333.1 ± 6.1 | 21.9 ± 1.9 | 336.7 ± 5.6 | 331.6 ± 6.6 | 20.9 ± 2.2 | 329.2 ± 4.8 | 334.1 ± 7.5 | reduced body weights of rats effectively | reduced food intakes and body weights | controlled overweight of young rats effectively | 23.7 ± 2.9 | 346.2 ± 4.8 | 191.1 ± 4.8 | 22.1 ± 2.8 | 334.1 ± 4.9 | 190.6 ± 5.7 | 20.8 ± 2.8 | 317.4 ± 6.4 | Weight (g) (Day 1) [1, 7]: 191.7 ± 4.6 g
